Results reported in ChEMBL document CHEMBL3526037, “Evaluation of the relationship between sex, polymorphisms in CYP2C8 and CYP2C9, and pharmacokinetics of angiotensin receptor blockers” (Drug Metab Dispos, 2013).

Columns and labels:
Assay type in all cases: ADME, organism-based
[1] = AUC in human plasma expressing CYP2C8*2 allele carrier polymorphism at 80 mg by LC/MS/MS analysis
[2] = Tmax in human plasma expressing CYP2C8*1/*1 polymorphism at 80 mg by LC/MS/MS analysis
[3] = Cmax in human plasma expressing CYP2C8*2 allele carrier polymorphism at 80 mg by LC/MS/MS analysis; set-up: dose 80 mg
[4] = Half life in men plasma at 80 mg by LC/MS/MS analysis; conditions: male, human
[5] = AUC in human plasma expressing CYP2C9*1/*1 polymorphism at 80 mg by LC/MS/MS analysis
[6] = AUC in human plasma expressing CYP2C8*1/*1 polymorphism at 80 mg by LC/MS/MS analysis
[7] = Cmax in human plasma expressing CYP2C9*1/*1 polymorphism at 80 mg by LC/MS/MS analysis; set-up: dose 80 mg
[8] = Tmax in women plasma at 80 mg by LC/MS/MS analysis; conditions: female, human
[9] = AUC in human plasma expressing CYP2C9*3 allele carrier polymorphism at 80 mg by LC/MS/MS analysis
[10] = Cmax in men plasma at 80 mg by LC/MS/MS analysis; set-up: dose 80 mg; conditions: male, human
[11] = AUC in men plasma at 80 mg by LC/MS/MS analysis; conditions: male, human
[12] = Half life in human plasma expressing CYP2C8*3 allele carrier polymorphism at 80 mg by LC/MS/MS analysis
[13] = Cmax in human plasma expressing CYP2C8*1/*1 polymorphism at 80 mg by LC/MS/MS analysis; set-up: dose 80 mg
[14] = Tmax in human plasma expressing CYP2C8*3 allele carrier polymorphism at 80 mg by LC/MS/MS analysis
[15] = Tmax in human plasma expressing CYP2C8*2 allele carrier polymorphism at 80 mg by LC/MS/MS analysis
[16] = Half life in women plasma at 80 mg by LC/MS/MS analysis; conditions: female, human
[17] = AUC in human plasma expressing CYP2C8*3 allele carrier polymorphism at 80 mg by LC/MS/MS analysis
[18] = Tmax in men plasma at 80 mg by LC/MS/MS analysis; conditions: male, human
[19] = Half life in human plasma expressing CYP2C9*3 allele carrier polymorphism at 80 mg by LC/MS/MS analysis
[20] = Cmax in women plasma at 80 mg by LC/MS/MS analysis; set-up: dose 80 mg; conditions: female, human
[21] = Tmax in human plasma expressing CYP2C9*1/*1 polymorphism at 80 mg by LC/MS/MS analysis
[22] = Half life in human plasma expressing CYP2C8*2 allele carrier polymorphism at 80 mg by LC/MS/MS analysis
[23] = AUC in women plasma at 80 mg by LC/MS/MS analysis; conditions: female, human
[24] = Cmax in human plasma expressing CYP2C8*3 allele carrier polymorphism at 80 mg by LC/MS/MS analysis; set-up: dose 80 mg
[25] = Cmax in human plasma expressing CYP2C9*3 allele carrier polymorphism at 80 mg by LC/MS/MS analysis; set-up: dose 80 mg
[26] = Half life in human plasma expressing CYP2C8*1/*1 polymorphism at 80 mg by LC/MS/MS analysis
[27] = Half life in human plasma expressing CYP2C9*1/*1 polymorphism at 80 mg by LC/MS/MS analysis
[28] = Tmax in human plasma expressing CYP2C9*3 allele carrier polymorphism at 80 mg by LC/MS/MS analysis

AUC [1]: 3680 ng·h/mL
Tmax [2]: 1.4 h
Cmax [3]: 498 ng/mL
half-life [4]: 1510 min
AUC [5]: 3130 ng·h/mL
AUC [6]: 3010 ng·h/mL
Cmax [7]: 446 ng/mL
Tmax [8]: 1.4 h
AUC [9]: 3400 ng·h/mL
Cmax [10]: 282 ng/mL
AUC [11]: 2470 ng·h/mL
half-life [12]: 2030 min
Cmax [13]: 437 ng/mL
Tmax [14]: 1 h
Tmax [15]: 1.3 h
half-life [16]: 1990 min
AUC [17]: 3230 ng·h/mL
Tmax [18]: 1.3 h
half-life [19]: 1810 min
Cmax [20]: 590 ng/mL
Tmax [21]: 1.4 h
half-life [22]: 1750 min
AUC [23]: 3680 ng·h/mL
Cmax [24]: 494 ng/mL
Cmax [25]: 510 ng/mL
half-life [26]: 1720 min
half-life [27]: 1780 min
Tmax [28]: 1.1 h
SMILES: CCCc1nc2c(C)cc(-c3nc4ccccc4n3C)cc2n1Cc1ccc(-c2ccccc2C(=O)O)cc1
